Tests used:
[1] = target: ATP-dependent translocase ABCB1 (Homo sapiens, UniProt P08183); assay: (§1) Inhibition of human Pgp-mediated DNR transport in NIH3T3 cells by microplate assay; format: cell-based, Mus musculus
P-gp (ABCB1) = P-gp (ABCB1) (Homo sapiens, UniProt P08183); assay: as §1; format: cell-based, Mus musculus; conditions: mouse, NIH3T3 cells expressing human P-gp, probe DNR; read-out: Imax
[2] = Partition coefficient, log P of the compound; format: physicochemical; conditions: octanol/water

P-gp (ABCB1), sequence (P08183 whole entry): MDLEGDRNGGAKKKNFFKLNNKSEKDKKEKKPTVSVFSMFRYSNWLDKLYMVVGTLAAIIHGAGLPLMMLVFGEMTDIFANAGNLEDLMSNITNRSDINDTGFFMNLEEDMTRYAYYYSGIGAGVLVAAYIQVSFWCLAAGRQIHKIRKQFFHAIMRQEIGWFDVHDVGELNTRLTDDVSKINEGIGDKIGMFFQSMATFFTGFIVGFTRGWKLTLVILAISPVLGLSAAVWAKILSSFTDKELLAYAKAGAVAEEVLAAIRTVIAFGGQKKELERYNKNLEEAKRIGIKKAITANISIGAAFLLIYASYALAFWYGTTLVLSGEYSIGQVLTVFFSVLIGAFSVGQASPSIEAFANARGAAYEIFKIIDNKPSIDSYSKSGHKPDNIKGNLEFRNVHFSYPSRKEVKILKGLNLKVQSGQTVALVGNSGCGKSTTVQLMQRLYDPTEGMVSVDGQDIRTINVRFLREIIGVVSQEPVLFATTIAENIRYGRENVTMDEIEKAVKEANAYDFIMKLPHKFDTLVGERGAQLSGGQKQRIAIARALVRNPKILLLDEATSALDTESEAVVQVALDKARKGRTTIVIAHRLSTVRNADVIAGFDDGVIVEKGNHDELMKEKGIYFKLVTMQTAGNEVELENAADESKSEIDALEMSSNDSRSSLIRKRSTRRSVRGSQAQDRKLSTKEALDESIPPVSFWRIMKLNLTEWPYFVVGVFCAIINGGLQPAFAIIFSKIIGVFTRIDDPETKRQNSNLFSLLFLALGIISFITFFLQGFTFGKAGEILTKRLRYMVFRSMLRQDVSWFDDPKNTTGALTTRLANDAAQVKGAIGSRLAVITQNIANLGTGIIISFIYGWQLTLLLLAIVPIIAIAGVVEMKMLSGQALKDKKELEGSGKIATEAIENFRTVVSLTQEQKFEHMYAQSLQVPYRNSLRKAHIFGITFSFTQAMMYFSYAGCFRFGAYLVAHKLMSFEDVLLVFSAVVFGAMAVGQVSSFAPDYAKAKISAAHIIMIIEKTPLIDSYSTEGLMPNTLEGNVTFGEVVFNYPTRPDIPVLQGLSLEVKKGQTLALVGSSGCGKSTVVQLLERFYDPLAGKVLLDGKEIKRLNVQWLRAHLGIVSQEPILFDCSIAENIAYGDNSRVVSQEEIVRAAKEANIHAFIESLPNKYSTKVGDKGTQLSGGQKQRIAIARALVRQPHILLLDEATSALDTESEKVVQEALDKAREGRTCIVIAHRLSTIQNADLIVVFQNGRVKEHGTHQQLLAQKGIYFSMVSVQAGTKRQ
ATP-dependent translocase ABCB1, sequence (P08183 whole entry): as above

Row | Structure (SMILES) | Ki ([1]; read-out: Ki) | Emax (P-gp (ABCB1)) | logP ([2]; read-out: LogP) | logP [2] | Ki ([1]; read-out: Log Ki (converted))
1 | CC(=O)OC[C@]12[C@H](OC(C)=O)[C@H](OC(C)=O)[C@@H]3[C@@H](OC(C)=O)[C@]1(O[C@@]3(C)COC(C)=O)[C@](C)(O)[C@@H](OC(C)=O)[C@H](OC(C)=O)[C@@H]2OC(C)=O | 6.97 µM | 31% | 3.6 |  | 
2 | C[C@@H]1[C@@H](O)[C@@H](O)[C@H](OC(=O)c2ccccc2)[C@@]2(C)[C@@H](OC(=O)/C=C/c3ccccc3)C[C@@H]3C[C@]12OC3(C)C | 6.94 µM | 76.6% | 6 |  | 
3 | CC(=O)O[C@@H]1C[C@@](C)(O)[C@@]23C[C@@H](C[C@H](OC(=O)c4ccccc4)[C@]2(C)[C@H]1OC(=O)c1ccccc1)C(C)(C)O3 | 7.59 µM | 89.8% | 6.6 |  | 
4 | CC(=O)O[C@H]1C[C@@](C)(O)[C@]23OC(C)(C)[C@H](C[C@H](OC(=O)c4ccco4)[C@]2(C)[C@H]1O)[C@H]3OC(=O)c1ccco1 | 100 µM | 100% | 4.3 |  | 
5 | CC(=O)OC[C@]12[C@H](OC(=O)c3ccccc3)C(=O)[C@@H]3[C@@H](OC(C)=O)[C@]1(OC3(C)C)[C@H](C)C[C@H](OC(C)=O)[C@@H]2OC(C)=O | 2.54 µM | 62.3% | 6.1 |  | 
6 | CC(=O)O[C@H]1C[C@@](C)(O)[C@]23OC(C)(C)[C@H](C[C@H](OC(=O)c4ccco4)[C@]2(C)[C@H]1OC(C)=O)[C@H]3OC(=O)C(C)(C)C | 0.96 µM | 75.2% | 5 |  | 
7 | CCCCCCCCCCCC(=O)O[C@@H]1[C@H]2C[C@H](OC(=O)c3ccco3)[C@]3(C)[C@@H](OC(C)=O)[C@@H](OC(=O)c4ccccc4)C[C@@](C)(O)[C@@]13OC2(C)C | 5.16 µM | 29.2% |  | 11.4 | 
8 | CC(=O)O[C@H]1[C@H](OC(=O)c2ccccc2)[C@@]2(C)[C@@H](OC(=O)/C=C/c3ccccc3)C[C@@H]3[C@@H](OC(C)=O)[C@]2(OC3(C)C)[C@](C)(O)[C@H]1OC(=O)c1cccnc1 | 25 µM | 100% | 8 |  | 
9 | CC(=O)O[C@H]1[C@@H](OC(=O)c2ccccc2)C[C@@](C)(O)[C@]23OC(C)(C)[C@H](C[C@H](OC(=O)c4ccco4)[C@]12C)[C@H]3OC(=O)C(C)(C)C | 1.04 µM | 90% | 7.3 |  | 
10 | CC(=O)O[C@@H]1[C@H](OC(C)=O)[C@@H](C)[C@@]23C[C@@H](C[C@H](OC(=O)/C=C/c4ccccc4)[C@]2(C)[C@H]1OC(=O)c1ccccc1)C(C)(C)O3 | 2.72 µM | 75.8% | 7.4 |  | 
11 | CC(=O)OC[C@]12[C@@H](OC(=O)c3ccccc3)C[C@@H]3[C@@H](OC(=O)c4ccccc4)[C@]1(OC3(C)C)[C@](C)(O)C[C@H](OC(=O)c1cccnc1)[C@@H]2OC(C)=O | 0.58 µM | 100% | 8.2 |  | 
12 | CC(=O)OC[C@]12[C@H](OC(=O)c3ccccc3)C(=O)[C@@H]3[C@@H](OC(C)=O)[C@]1(OC3(C)C)[C@](C)(O)C[C@H](OC(=O)c1ccccc1)[C@@H]2OC(=O)c1ccccc1 | 1.03 µM | 80% |  | 10 | 
13 | CC(=O)O[C@H]1[C@@H](OC(=O)c2ccccc2)C[C@@](C)(O)[C@]23OC(C)(C)[C@H](C[C@H](OC(=O)c4ccco4)[C@]12C)[C@H]3OC(=O)c1cccc2ccccc12 | 4.59 µM | 54.8% |  | 9.6 | 
14 | CC(=O)OC[C@]12[C@H](OC(=O)c3ccccc3)[C@H](OC(=O)c3ccccc3)[C@@H]3[C@@H](OC(C)=O)[C@]1(OC3(C)C)[C@H](C)C[C@H](OC(=O)c1ccccc1)[C@@H]2OC(=O)c1ccccc1 | 1.98 µM | 29.3% |  |  | 
15 | CC(=O)O[C@H]1C[C@@](C)(O)[C@]23OC(C)(C)[C@H]([C@H](OC(=O)c4ccccc4)[C@H](OC(=O)c4ccccc4)[C@]2(CO)[C@H]1OC(C)=O)[C@H]3OC(C)=O | 7.04 µM | 73% | 6.9 |  | 
16 | CC(=O)OC[C@]12[C@@H](OC(=O)c3ccccc3)C[C@@H]3[C@@H](OC(=O)c4ccccc4)[C@]1(OC3(C)C)[C@H](C)C[C@H](OC(=O)c1cccnc1)[C@@H]2OC(C)=O | 0.71 µM | 85.8% | 8.4 |  | 
17 | CC(=O)OC[C@]12[C@@H](OC(=O)c3ccco3)C[C@@H]3[C@@H](OC(=O)c4ccco4)[C@]1(OC3(C)C)[C@](C)(O)C[C@H](OC(C)=O)[C@@H]2OC(C)=O | 2.44 µM | 76.9% | 5.4 |  | 
18 | CC(=O)O[C@H]1CC[C@@](C)(O)[C@]23OC(C)(C)[C@H](C[C@H](OC(=O)c4ccco4)[C@]12C)[C@H]3OC(=O)c1ccco1 | 6.61 µM | 96.3% | 5.3 |  | 
19 | CC(=O)OC[C@]12[C@H](OC(=O)c3ccccc3)C(=O)[C@@H]3[C@@H](OC(C)=O)[C@]1(OC3(C)C)[C@](C)(O)C[C@H](OC(C)=O)[C@@H]2OC(=O)c1ccccc1 | 3.01 µM | 81.1% | 7.7 |  | 
20 | CC(=O)OC[C@]12[C@@H](OC(=O)c3ccccc3)C[C@@H]3[C@@H](OC(C)=O)[C@]1(OC3(C)C)[C@](C)(O)C[C@H](OC(C)=O)[C@@H]2OC(C)=O | 4.39 µM | 85% | 5 |  | 3.47 µM

Row | Structure (SMILES) | Ki ([1]; read-out: Ki) | Emax (P-gp (ABCB1)) | logP ([2]; read-out: LogP) | logP [2] | Ki ([1]; read-out: Log Ki (converted))
21 | CC(=O)O[C@@H]1[C@H]2C[C@H](OC(=O)c3ccco3)[C@]3(C)[C@@H](OC(C)=O)[C@@H](OC(=O)c4ccco4)C[C@@](C)(O)[C@@]13OC2(C)C | 4.13 µM | 61.7% | 5.1 |  | 
22 | CC(=O)OC[C@]12[C@@H](OC(=O)c3ccco3)C[C@@H]3[C@@H](OC(C)=O)[C@]1(OC3(C)C)[C@](C)(O)C[C@H](OC(=O)c1ccco1)[C@@H]2OC(=O)c1ccco1 | 4.51 µM | 99.4% | 6.5 |  | 
23 | CC(=O)OC[C@]12[C@@H](OC(=O)c3ccccc3)C[C@@H]3[C@@H](OC(C)=O)[C@]1(OC3(C)C)[C@H](C)C[C@H](OC(C)=O)[C@@H]2OC(C)=O | 2.36 µM | 80.8% | 5.7 |  | 
24 | CC(=O)OC[C@]12[C@@H](OC(=O)c3ccccc3)C[C@@H]3[C@@H](OC(=O)c4ccccc4)[C@]1(OC3(C)C)[C@](C)(O)C[C@H](OC(C)=O)[C@@H]2OC(C)=O | 1.5 µM | 100% | 7.3 |  | 
25 | CC(=O)O[C@H]1[C@@H](O)C[C@@](C)(O)[C@]23OC(C)(C)[C@H](C[C@H](OC(=O)c4ccco4)[C@]12C)[C@H]3OC(=O)c1ccco1 | 4.16 µM | 51.8% | 4.3 |  | 
26 | CC(=O)O[C@@H]1[C@H]2[C@H](O)[C@H](OC(=O)c3ccccc3)[C@]3(C)[C@@H](OC(=O)c4ccccc4)[C@@H](OC(=O)c4ccccc4)C[C@@](C)(O)[C@@]13OC2(C)C | 1.21 µM | 100% | 8.4 |  | 
27 | CC(=O)O[C@H]1C[C@@](C)(O)[C@]23OC(C)(C)[C@H]([C@H](OC(=O)c4ccccc4)[C@H](OC(=O)c4ccccc4)[C@]2(C)[C@H]1OC(=O)c1ccccc1)[C@H]3OC(C)=O | 0.91 µM | 84.9% |  | 9.2 | 
28 | CC(=O)O[C@H]1C[C@@](C)(O)[C@]23OC(C)(C)[C@H](C[C@H](OC(=O)c4ccco4)[C@]2(C)[C@H]1OC(C)=O)[C@H]3OC(=O)c1ccccc1 | 8.94 µM | 67.9% | 6.1 |  | 
29 | CC(=O)OC[C@]12[C@@H](OC(=O)c3ccccc3)[C@@H](OC(=O)c3ccccc3)[C@@H]3[C@@H](OC(C)=O)[C@]1(OC3(C)C)[C@H](C)C[C@H](OC(C)=O)[C@@H]2OC(C)=O | 1.71 µM | 86.2% | 8.3 |  | 
30 | CC(=O)OC[C@]12[C@H](OC(=O)c3ccccc3)C(=O)[C@@H]3[C@@H](OC(C)=O)[C@]1(OC3(C)C)[C@H](C)C[C@H](OC(C)=O)[C@@H]2O | 18.4 µM | 91.7% | 5 |  | 
31 | CC(=O)O[C@H]1[C@@H](OC(=O)c2ccccc2)C[C@@](C)(O)[C@]23OC(C)(C)[C@H](C[C@H](OC(=O)c4ccco4)[C@]12C)[C@H]3OC(=O)C(F)(F)F | 1.56 µM | 53.3% | 6.4 |  | 
32 | CCCCCCCCCCCC(=O)O[C@@H]1[C@H]2C[C@H](OC(=O)c3ccco3)[C@]3(C)[C@@H](OC(C)=O)[C@@H](OC(C)=O)C[C@@](C)(O)[C@@]13OC2(C)C | 0.8 µM | 72.7% |  | 9.1 | 
33 | CC(=O)O[C@H]1[C@@H](OC(=O)c2ccco2)C[C@@](C)(O)[C@]23OC(C)(C)[C@H](C[C@H](OC(=O)c4ccco4)[C@]12C)[C@H]3OC(=O)c1ccco1 | 2.19 µM | 80.5% | 6.5 |  | 
34 | CC(=O)O[C@H]1[C@H](OC(=O)c2ccccc2)[C@@]2(C)[C@@H](OC(=O)c3ccccc3)C[C@@H]3[C@@H](OC(C)=O)[C@]2(OC3(C)C)[C@](C)(O)[C@H]1OC(=O)c1cccnc1 | 3.75 µM | 98.8% | 8 |  | 
35 | CC(=O)O[C@H]1[C@@H](OC(=O)c2ccccc2)C[C@@](C)(O)[C@]23OC(C)(C)[C@H](C[C@H](OC(=O)c4ccco4)[C@]12C)[C@H]3OC(=O)c1ccco1 | 0.7 µM | 93.1% | 7.1 |  | 
36 | CC(=O)O[C@H]1[C@@H](OC(=O)c2cccnc2)C[C@@](C)(O)[C@]23OC(C)(C)[C@H](C[C@H](OC(=O)c4ccco4)[C@]12C)[C@H]3OC(=O)c1ccco1 | 7.42 µM | 100% | 6.1 |  | 
37 | CC(=O)O[C@H]1[C@@H]2[C@@H](OC(C)=O)[C@@]3(OC2(C)C)[C@](C)([C@H]1OC(=O)c1ccccc1)[C@@H](OC(=O)c1ccccc1)[C@@H](OC(=O)c1ccccc1)C[C@@]3(C)O | 11.3 µM | 80.7% |  | 9.4 | 
38 | CC(=O)O[C@H]1[C@H](OC(=O)/C=C/c2ccccc2)[C@@]2(C)[C@@H](OC(=O)c3ccccc3)C[C@@H]3C[C@]2(OC3(C)C)[C@](C)(O)[C@H]1OC(=O)c1cccnc1 | 2.07 µM | 95.2% | 7.6 |  | 
39 | CC(=O)O[C@H]1C[C@@](C)(O)[C@]23OC(C)(C)[C@H](C[C@H](OC(=O)c4ccco4)[C@]2(C)[C@H]1OC(C)=O)[C@H]3OC(C)=O | 100 µM |  | 3.8 |  | 

Source: ChEMBL document CHEMBL1148809, “Biological evaluation, structure-activity relationships, and three-dimensional quantitative structure-activity relationship studies of dihydro-beta-agarofuran sesquiterpenes as modulators of P-glycoprotein-dependent multidrug resistance” (J Med Chem, 2007)
